Literature values in patent publication US8765739B2, “Azetidine compound and pharmaceutical use thereof” (Japan Tobacco Inc., priority 2009, dated 2014).

What was measured:
[1] = tested on: mice with collagen-induced arthritis
[2] = tested on: rats suffering from experimental autoimmune encephalomyelitis; details: animal model of multiple sclerosis
[3] = tested on: bone absorption induced by metastatic cancer in rat

SMILES: COc1cc(Oc2ccnc3cc(OC)c(OC)cc23)ccc1NC(=O)NC(C)c1nccs1 (stereo not drawn) [Ki20227]
- swellings and bone destructions [1]: improves swellings and bone destructions
- condition of rats with experimental autoimmune encephalomyelitis [2]: improves the condition
- bone absorption induced by metastatic cancer [3]: improves bone absorption
